In brackets after ≈: the same amount, converted by molar mass.
Assays:
K. pneumoniae SI-117 = assay: microbe, parasite or virus in culture; assay type: cell-based; conditions: Klebsiella pneumoniae, SI117, read-out: MIC K. pneumoniae SI-117
N. gonorrhoeae WHO Q = assay: Liquid broth MIC in Fastidious broth; conditions: Neisseria gonorrhoeae, read-out: Minimum Inhibitory Concentration (MIC), N. gonorrhoeae WHO Q
N. gonorrhoeae WHO L = assay: Liquid broth MIC in Fastidious broth; conditions: Neisseria gonorrhoeae, read-out: Minimum Inhibitory Concentration (MIC), N. gonorrhoeae WHO L
N. gonorrhoeae WHO K = assay: Liquid broth MIC in Fastidious broth; conditions: Neisseria gonorrhoeae, read-out: Minimum Inhibitory Concentration (MIC), N. gonorrhoeae WHO K
E. coli 901C = assay: microbe, parasite or virus in culture; assay type: cell-based; conditions: Escherichia coli, read-out: MIC E. coli 901C
[1] = system: P. aeruginosa (ΔmexAB-oprM); assay: Broth microdilution MIC in CAMHB; assay type: cell-based; conditions: Pseudomonas aeruginosa; read-out: MIC P. aeruginosa ΔmexAB-oprM
N. gonorrhoeae CDC-0197 = assay: Liquid broth MIC in Fastidious broth; conditions: Neisseria gonorrhoeae, CDC0197, read-out: Minimum Inhibitory Concentration (MIC), N. gonorrhoeae CDC-0197
E. coli ATCC 25922 = assay: microbe, parasite or virus in culture; assay type: cell-based; conditions: Escherichia coli, ATCC25922, read-out: MIC E. coli 25922
A. baumannii ATCC 19606 = assay: microbe, parasite or virus in culture; assay type: cell-based; conditions: Acinetobacter baumannii, ATCC19606, read-out: MIC, A. baumannii ATCC 19606
P. aeruginosa ATCC 35151 = assay: microbe, parasite or virus in culture; assay type: cell-based; conditions: Pseudomonas aeruginosa, ATCC35151, read-out: MIC P. aeruginosa ATCC 35151
N. gonorrhoeae WHO X = assay: Liquid broth MIC in Fastidious broth; conditions: Neisseria gonorrhoeae, read-out: Minimum Inhibitory Concentration (MIC), N. gonorrhoeae WHO X
[2] = biological target: T1, PBP2 from Neisseria gonorrhoeae (FA19) (Neisseria gonorrhoeae, UniProt P08149); assay: Bocillin-FL fluorescence polarization competition binding, N. gonorrhoeae PBP2; conditions: fluorescence polarization competition binding assay using Bocillin-FL, read-out: N. gonorrhoeae PBP2 Potency
T1 construct: made in house
T1 sequence (P08149 whole entry): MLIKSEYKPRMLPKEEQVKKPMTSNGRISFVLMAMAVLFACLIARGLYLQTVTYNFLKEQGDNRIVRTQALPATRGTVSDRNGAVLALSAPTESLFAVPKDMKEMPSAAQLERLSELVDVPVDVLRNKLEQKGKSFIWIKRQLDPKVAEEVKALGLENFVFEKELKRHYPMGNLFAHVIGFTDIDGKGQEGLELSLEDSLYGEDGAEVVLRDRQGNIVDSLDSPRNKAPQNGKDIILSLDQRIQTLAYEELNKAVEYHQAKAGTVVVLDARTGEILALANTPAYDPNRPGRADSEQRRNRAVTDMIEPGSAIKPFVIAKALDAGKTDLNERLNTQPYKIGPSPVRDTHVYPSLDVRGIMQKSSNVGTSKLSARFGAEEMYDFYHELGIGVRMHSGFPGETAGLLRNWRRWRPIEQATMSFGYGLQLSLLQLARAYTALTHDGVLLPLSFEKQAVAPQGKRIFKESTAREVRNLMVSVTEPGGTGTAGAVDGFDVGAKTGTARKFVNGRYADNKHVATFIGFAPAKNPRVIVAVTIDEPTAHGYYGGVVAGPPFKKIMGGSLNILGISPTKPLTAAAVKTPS
Text: To determine the ability of boronic acid-based test PBP inhibitors to bind Penicillin Binding Proteins (PBPs), Bocillin-FL (fluorescently-labeled penicillin V; ThermoFisher Scientific) was used in a fluorescence polarization (FP) competition binding assay to assess inhibitor binding to PBP3 from Escherichia coli (K-12), PBP3 from Pseudomonas aeruginosa (PAO1), PBP1a and PBP3 from Acinetobacter baumannii (ATCC 19606), and PBP2 from Neisseria gonorrhoeae (FA19). PBPs were cloned and purified as described previously (E. coli PBP3, King, D. T, et al., ACS Infectious Diseases 2015, 1, 175-184; P. aeruginosa PBP3, Han et. al., PNAS 2010, 107 (51), 22002-22007; A. baumannii PBPs, Penwell et. al., Antimicrob. Agents Chemother. 2015, 59 (3), 1680-1689; N. gonorrhoeae PBP2, Singh et. al., J. Biol. Chem. 2019, 294 (38), 14020-14032). To establish assay conditions for competition binding, enzyme titration/saturation binding experiments were initially performed. Bocillin-FL was prepared at 0.2 μM in a buffer comprised of 50 mM Hepes (pH 8.0), 300 mM NaCl and 10% (v/v) glycerol for reactions with E. coli, P. aeruginosa and N. gonorrhoeae PBPs, and 25 mM Tris (pH 8.0), 200 mM NaCl, 10% (v/v) glycerol and 0.005% (v/v) Tween 20 for reactions with A. baumannii PBPs. Saturation binding was performed by mixing 40 μl of PBP solutions ranging in concentrations from 0-24 μM with 40 μl of the 0.2 μM Bocillin-FL solution, in individual wells of a black 384-well microplate. FP was measured immediately upon mixing (Excitation, 490 nm; Emission, 520 nm; g-factor, 0.96), using a Cytation3 (BioTek) microplate reader and measured continuously for up to 120 minutes. […] The competition binding assay (80 μl final volume) was validated using beta-lactams and PBPs at final concentrations of: 1.5 μM for E. coli PBP3; 0.75 μM for P. aeruginosa PBP3; 1 μM for A. baumannii PBP1a; 0.2 μM for A. baumannii PBP3; and 0.25 μM for N. gonorrhoeae PBP2. Bocillin-FL was at 0.1 μM (0.05 μM with A. baumannii PBP1a) and beta-lactam concentrations ranged from 0-1,000 μM. E. coli PBP3 was incubated with increasing concentrations of ampicillin in a black 384-well microplate (Corning) for 30 minutes. P. aeruginosa PBP3 was incubated for 15 minutes with aztreonam, whereas A. baumannii PBP1a and PBP3 were incubated for 15 minutes with meropenem, and then Bocillin-FL was added followed immediately by the FP measurement for up to 60 minutes. […] The beta-lactam potency was reported as the concentration of beta-lactam required to reduce the amount of PBP bound-Bocillin-FL by 50% (EC50). […] Binding assays for boronic acid PBP inhibitors were performed in an identical fashion for the respective PBPs.

N. gonorrhoeae WHO G = assay: Liquid broth MIC in Fastidious broth; conditions: Neisseria gonorrhoeae, read-out: Minimum Inhibitory Concentration (MIC), N. gonorrhoeae WHO G

SMILES	MIC (K. pneumoniae SI-117) [µg/mL]	MIC (N. gonorrhoeae WHO Q) [µg/mL]	MIC (N. gonorrhoeae WHO L) [µg/mL]	MIC (N. gonorrhoeae WHO K) [µg/mL]	MIC (E. coli 901C) [µg/mL]	MIC [1] [µg/mL]	MIC (N. gonorrhoeae CDC-0197) [µg/mL]	MIC (E. coli ATCC 25922) [µg/mL]	MIC (A. baumannii ATCC 19606) [µg/mL]	MIC (P. aeruginosa ATCC 35151) [µg/mL]	MIC (N. gonorrhoeae WHO X) [µg/mL]	EC50 [2] [µM]	MIC (N. gonorrhoeae WHO G) [µg/mL]
O=C(O)c1cccc2c1OB(O)[C@@H](NC(=O)[C@@H](NC(=O)N1CCCCC1=O)c1ccc(P(=O)(O)O)cc1)C2 [Example 36, (R)-2-hydroxy-3-((S)-2-(2-oxopiperidine-1-carboxamido)-2-(4-phosphonophenyl)acetamido)-3,4-dihydro-2H-benzo[39e][1,2]oxaborinine-8-carboxylic acid]	> 128	16 to 32 (≈ 29.3 to 58.7 µM)	16 to 32 (≈ 29.3 to 58.7 µM)	16 to 32 (≈ 29.3 to 58.7 µM)	8 to 16 (≈ 14.7 to 29.3 µM)	> 128	16 to 32 (≈ 29.3 to 58.7 µM)	> 128	> 128	8 to 16 (≈ 14.7 to 29.3 µM)	16 to 32 (≈ 29.3 to 58.7 µM)	10 to 50	4 to 8 (≈ 7.34 to 14.7 µM)
O=C(NC(C(=O)N[C@H]1Cc2cccc(C(=O)O)c2OB1O)c1ccc(P(=O)(O)O)cc1)c1ccc(Cl)cn1 (stereo partly drawn) [Example 184, (3R)-3-(2-(5-chloropicolinamido)-2-(4-phosphonophenyl)acetamido)-2-hydroxy-3,4-dihydro-2H-benzo[e][1,2]oxaborinine-8-carboxylic acid]	> 128	1 to 2 (≈ 1.79 to 3.57 µM)	4 to 8 (≈ 7.15 to 14.3 µM)	1 to 2 (≈ 1.79 to 3.57 µM)	< 1	> 128	< 1	> 128	> 128	2 to 4 (≈ 3.57 to 7.15 µM)	4 to 8 (≈ 7.15 to 14.3 µM)	< 10	< 1
CN1CCN(C(=O)NC(C(=O)N[C@H]2Cc3cccc(C(=O)O)c3OB2O)c2ccc(P(=O)(O)O)cc2)C1=O (stereo partly drawn) [Example 41, (3R)-2-hydroxy-3-(2-(3-methyl-2-oxoimidazolidine-1-carboxamido)-2-(4-phosphonophenyl)acetamido)-3,4-dihydro-2H-benzo[e][1,2]oxaborinine-8-carboxylic acid]	> 128	< 1	1 to 2 (≈ 1.83 to 3.66 µM)	< 1	< 1	8 to 16 (≈ 14.6 to 29.3 µM)	< 1	32 to 64 (≈ 58.6 to 117 µM)	32 to 64 (≈ 58.6 to 117 µM)	< 1	1 to 2 (≈ 1.83 to 3.66 µM)	< 10	< 1
CS(=O)(=O)N1CCC[C@H]1C(=O)N[C@@H](C(=O)N[C@H]1Cc2cccc(C(=O)O)c2OB1O)c1ccc(P(=O)(O)O)cc1 [Example 44, (R)-2-hydroxy-3-((R)-2-((S)-1-(methylsulfonyl)pyrrolidine-2-carboxamido)-2-(4-phosphonophenyl)acetamido)-3,4-dihydro-2H-benzo[e][1,2]oxaborinine-8-carboxylic acid]	> 128	1 to 2 (≈ 1.68 to 3.36 µM)	16 to 32 (≈ 26.9 to 53.8 µM)	4 to 8 (≈ 6.72 to 13.4 µM)	2 to 4 (≈ 3.36 to 6.72 µM)	32 to 64 (≈ 53.8 to 108 µM)	1 to 2 (≈ 1.68 to 3.36 µM)	> 128	> 128	2 to 4 (≈ 3.36 to 6.72 µM)	16 to 32 (≈ 26.9 to 53.8 µM)	< 10	1 to 2 (≈ 1.68 to 3.36 µM)
O=C(O)c1cccc2c1OB(O)[C@@H](NC(=O)[C@H](NC(=O)N1CCNC1=O)c1ccc(P(=O)(O)O)cc1)C2 [Example 40, (R)-2-hydroxy-3-((R)-2-(2-oxoimidazolidine-1-carboxamido)-2-(4-phosphonophenyl)acetamido)-3,4-dihydro-2H-benzo[e][1,2]oxaborinine-8-carboxylic acid]	> 128	< 1	1 to 2 (≈ 1.88 to 3.76 µM)	1 to 2 (≈ 1.88 to 3.76 µM)	< 1	8 to 16 (≈ 15 to 30.1 µM)	< 1	32 to 64 (≈ 60.1 to 120 µM)	32 to 64 (≈ 60.1 to 120 µM)	< 1	1 to 2 (≈ 1.88 to 3.76 µM)	< 10	< 1
O=C(O)c1cccc2c1OB(O)[C@@H](NC(=O)[C@@H](NC(=O)c1ccn[nH]c1=O)c1ccc(P(=O)(O)O)cc1)C2 (single isomer, unassigned) [Example 177]	> 128	4 to 8 (≈ 7.38 to 14.8 µM)	4 to 8 (≈ 7.38 to 14.8 µM)	4 to 8 (≈ 7.38 to 14.8 µM)	2 to 4 (≈ 3.69 to 7.38 µM)	> 128	1 to 2 (≈ 1.84 to 3.69 µM)	> 128	> 128	2 to 4 (≈ 3.69 to 7.38 µM)	16 to 32 (≈ 29.5 to 59 µM)	< 10	< 1
O=C(O)c1cccc2c1OB(O)[C@@H](NC(=O)[C@H](NC(=O)c1ccn[nH]c1=O)c1ccc(P(=O)(O)O)cc1)C2 (single isomer, unassigned) [Example 178]	> 128	1 to 2 (≈ 1.84 to 3.69 µM)	1 to 2 (≈ 1.84 to 3.69 µM)	1 to 2 (≈ 1.84 to 3.69 µM)	< 1	8 to 16 (≈ 14.8 to 29.5 µM)	< 1	> 128	32 to 64 (≈ 59 to 118 µM)	< 1	4 to 8 (≈ 7.38 to 14.8 µM)	< 10	< 1
NC(C(=O)N[C@H]1Cc2ccc(F)c(C(=O)O)c2OB1O)c1ccc(P(=O)(O)O)cc1 (stereo partly drawn) [Example 14, (3R)-3-(2-amino-2-(4-phosphonophenyl)acetamido)-7-fluoro-2-hydroxy-3,4-dihydro-2H-benzo[e][1,2]oxaborinine-8-carboxylic acid]	> 128	> 64	> 64	> 64	> 128	> 128	> 64	> 128	> 128	> 128	> 64	50 to 250	> 64
